# Read-outs that look alike come from different tables or passages of the source.
# Tested on: L. donovani IRFP axenic amastigotes
# Assay: Primary single-concentration screening on axenic amastigotes, growth inhibition at 72 h
# Format: cell-based, Leishmania donovani
# Conditions: for inhibition at 1 µM / inhibition at 10 µM: Leishmania donovani
# [1] = 1 µM, experiment 1, 72 h, axenic amastigotes
# [2] = 1 µM, experiment 2, 72 h, axenic amastigotes
# [3] = 10 µM, experiment 1, 72 h, axenic amastigotes
# [4] = 10 µM, experiment 2, 72 h, axenic amastigotes
# [5] = 1 µM, experiment 1, 72 h, axenic amastigotes, read-out: Growth Inhibition (%) at 72h, 1 µM_Exp1
# [6] = 1 µM, experiment 2, 72 h, axenic amastigotes, read-out: Growth Inhibition (%) at 72h, 1 µM_Exp2
# [7] = 10 µM, experiment 1, 72 h, axenic amastigotes, read-out: Growth Inhibition (%) at 72h, 10 µM_Exp1
# [8] = 10 µM, experiment 2, 72 h, axenic amastigotes, read-out: Growth Inhibition (%) at 72h, 10 µM_Exp2
Compound,"Growth Inhibition (%) at 72h, 1 µM_Exp1 [1] [%]","Growth Inhibition (%) at 72h, 1 µM_Exp2 [2] [%]","Growth Inhibition (%) at 72h, 10 µM_Exp1 [3] [%]","Growth Inhibition (%) at 72h, 10 µM_Exp2 [4] [%]",inhibition at 1 µM [5] [%],inhibition at 1 µM [6] [%],inhibition at 10 µM [7] [%],inhibition at 10 µM [8] [%],also measured
Cl.Cl.O=C(C[C@H]1NCCC[C@@H]1O)Cn1cnc2ccccc2c1=O [Febrifugine (dihydrochloride)],74.39,25.76,97.63,97.12,–,–,–,–,–
O=C(O)Cc1c[nH]c2ccccc12 [3-Indoleacetic acid],–,–,–,–,-25.4,-9.83,102,101,–
CN1c2ccccc2C(=O)N2CCc3c([nH]c4ccccc34)[C@@H]21 (racemic) [(±)-Evodiamine],64.72,40.81,100.52,97.39,–,–,–,–,–
CC(=O)C1=C(O)[C@@H]2[C@H]3c4c[nH]c5cccc(c45)C[C@H]3C(C)(C)N2C1=O [Cyclopiazonic acid],–,–,–,–,20.8,19.9,100,100,–
COc1c2ccoc2nc2c(O)cccc12 [Robustine],–,–,–,–,48.3,1.86,90.6,33.3,–
COc1ccc2cc3[n+](cc2c1OC)CCc1cc2c(cc1-3)OCO2.[Cl-] [Berberine (chloride)],16.68,6.56,99.29,97.39,–,–,–,–,–
O=C(CC1NCCCC1O)Cn1cnc2cc(Br)c(Cl)cc2c1=O (stereo not shown) [Halofuginone],–,–,–,–,93.7,90.9,97.7,98.2,–
COc1cc(CNC(=O)CCCCCCC(C)C)ccc1O [Dihydrocapsaicin],–,–,–,–,-4.08,35.3,92,71.1,–
COC(=O)C[C@](O)(CCCC(C)(C)O)C(=O)O[C@@H]1C(OC)=C[C@]23CCCN2CCc2cc4c(cc2[C@H]13)OCO4 [Homoharringtonine],–,–,–,–,4.68,-119,89.9,91.5,–
CC(C)(O)[C@H]1O[C@H]2CC[C@@]3(C)[C@@](O)(CC[C@H]4Cc5c([nH]c6ccccc56)[C@@]43C)C2=CC1=O [Paxilline],–,–,–,–,6.12,19.6,98.6,99.1,–
O=C1C=CC(=O)N1 [Maleimide],–,–,–,–,101,101,101,101,–
"c1ccc2c(Cc3c[nH]c4ccccc34)c[nH]c2c1 [3,3'-Diindolylmethane]",–,–,–,–,-59.5,-44.6,100,95.7,–
CCc1c2c(nc3ccccc13)-c1cc3c(c(=O)n1C2)COC(=O)[C@]3(O)CC [7-Ethylcamptothecin],70.44,77.88,96.57,91.90,–,–,–,–,–
COc1cc2c(cc1OC)-c1c(C)c3ccc(OC)c(OC)c3c[n+]1CC2.[Cl-] [Dehydrocorydaline (chloride)],13.00,31.86,95.47,88.17,–,–,–,–,–
COc1cc2c(cc1OC)[C@H]1[C@@H](C)c3ccc(OC)c(OC)c3CN1CC2 [Corydaline],-15.75,2.30,79.13,87.39,–,–,–,–,–
C[C@H]1CC[C@]2(NC1)O[C@H]1C[C@H]3[C@@H]4CC[C@H]5C[C@@H](O)CC[C@]5(C)[C@H]4CC[C@]3(C)[C@H]1[C@@H]2C [Tomatidine],–,–,–,–,11.2,18.6,66.9,75.1,–
"c1ccc2c(Cc3[nH]c4ccccc4c3Cc3c[nH]c4ccccc34)c[nH]c2c1 [2,3-Bis(3-indolylmethyl) indole]",–,–,–,–,-5.15,13.6,101,100,–
COc1ccc2cc3[n+](cc2c1OC)CCc1cc(O)c(O)cc1-3.[Cl-] [Demethyleneberberine (chloride)],-4.24,8.25,43.2,71.18,–,–,–,–,–
O=C1c2ccccc2-n2c1nc1ccccc1c2=O [Tryptanthrin],–,–,–,–,13.1,23.4,84.1,75,–
CC/C=C\C/C=C\C/C=C\CCCCCCCC(=O)NCc1ccccc1 [N-Benzyllinolenamide],-37.93,-43.83,99.95,100.85,–,–,–,–,–
Br.O=C(CC1NCCCC1O)Cn1cnc2cc(Br)c(Cl)cc2c1=O (stereo not shown) [Halofuginone (hydrobromide)],99.34,83.65,100.16,98.51,–,–,–,–,–
C[C@@H]1CC[C@@]2(NC1)O[C@H]1C[C@H]3[C@@H]4CC=C5C[C@@H](O[C@@H]6O[C@H](CO)[C@@H](O[C@@H]7O[C@@H](C)[C@H](O)[C@@H](O)[C@H]7O)[C@H](O)[C@H]6O[C@@H]6O[C@@H](C)[C@H](O)[C@@H](O)[C@H]6O)CC[C@]5(C)[C@H]4CC[C@]3(C)[C@H]1[C@@H]2C [Solamargine],–,–,–,–,62.8,11.2,93.6,94.3,–
CC[C@@]1(O)C(=O)OCc2c1cc1n(c2=O)Cc2cc3cc(OC)ccc3nc2-1 [10-Methoxycamptothecin],73.40,85.61,97.42,93.76,–,–,–,–,–
CCCCCCCCCCCCCc1cc(=O)c2ccccc2n1C [Dihydroevocarpine],-21.58,19.18,97.61,83.00,–,–,–,–,–
COc1cc(CNC(=O)CCCCCC(C)C)ccc1O [Nordihydrocapsaicin],–,–,–,–,–,–,–,–,"Growth Inhibition (%) at 72h, 1 µM_Exp1: 1.91%; Growth Inhibition (%) at 72h, 1 µM_Exp2: -21.65%; Growth Inhibition (%) at 72h, 10 µM_Exp1: 90.15%; Growth Inhibition (%) at 72h, 10 µM_Exp2: 70.24%"
COc1cc(/C=C/C(=O)N2CCC=CC2=O)cc(OC)c1OC [Piperlongumine],99.95,98.63,100.21,100.05,–,–,–,–,–
COc1ccc2cc3[n+](cc2c1OC)CCc1cc2c(cc1-3)OCO2.O=S(=O)([O-])O [Berberine (sulfate)],19.57,-24.39,70.74,94.59,–,–,–,–,–
O=C(O)c1cccc2nc3ccccc3nc12 [Phenazine-1-carboxylic acid],–,–,–,–,-12.2,-87,90.8,87.8,–

# From PMC12608155, “Discovery of Potential Antileishmanial Compounds Through Phenotypic Screening of an Alkaloid Library” (Molecules, 2025)
